# Source: paper PMC8247773, “Benzohydrazide and Phenylacetamide Scaffolds: New Putative ParE Inhibitors” (Frontiers in Bioengineering and Biotechnology, 2021)
# How the values were obtained:
# [1] = system: Klebsiella pneumonia (NCIM 2706); design: method as in Yele et al., 2020, 2021; conditions: ref Yele et al., 2020, 2021; cited from earlier work
# [2] = system: Pseudomonas aeruginosa (NCIM 2036); design: method as in Yele et al., 2020, 2021; conditions: ref Yele et al., 2020, 2021; cited from earlier work
# [3] = system: Bacillus subtilis (NCIM 2545); design: method as in Yele et al., 2020, 2021; conditions: ref Yele et al., 2020, 2021; cited from earlier work
# [4] = system: Mycobacterium tuberculosis (NCIM 2984); design: method as in Yele et al., 2020, 2021; conditions: ref Yele et al., 2020, 2021; cited from earlier work
# [5] = system: Staphylococcus aureus (NCIM 5022); design: method as in Yele et al., 2020, 2021; conditions: ref Yele et al., 2020, 2021; cited from earlier work
# [6] = system: preformed E. coli biofilm (NCIM 2065); test: E. coli antibiofilm activity (crystal violet); assay type: cell-based, Escherichia coli; conditions: 10× MIC, 24 h
# [7] = system: Escherichia coli (NCIM 2065); test: Antibacterial susceptibility test, microbroth dilution MIC; assay type: cell-based; conditions: E. Coli (NCIM 2065), mean ± SD
# [8] = system: Staphylococcus epidermis (NCIM 2493); design: method as in Yele et al., 2020, 2021; conditions: ref Yele et al., 2020, 2021; cited from earlier work
# MRSA (NCIM 5021) [9] = test: Antibacterial susceptibility test, microbroth dilution MIC; assay type: cell-based, methicillin-resistant Staphylococcus aureus; conditions: mean ± SD
# E. coli [10] = test: Post antibiotic effect (PAE); assay type: cell-based, Escherichia coli; conditions: for Time for 1 log10: untreated control 2 h
# MRSA (ATCC43300) [11] = test: Antibacterial susceptibility test, microbroth dilution MIC; assay type: cell-based, methicillin-resistant Staphylococcus aureus; conditions: mean ± SD
# E. coli [12] = test: Checkerboard synergy with FDA approved drugs; assay type: cell-based, Escherichia coli
# [13] = system: Escherichia coli (NCIM 2567); design: method as in Yele et al., 2020, 2021; conditions: ref Yele et al., 2020, 2021; cited from earlier work
# [14] = system: Salmonella typhi (NCIM 2501); design: method as in Yele et al., 2020, 2021; conditions: ref Yele et al., 2020, 2021; cited from earlier work
# [15] = system: Escherichia coli (NCIM 2065); test: Minimum bactericidal concentration (MBC); assay type: cell-based; conditions: E. Coli (NCIM 2065); for MBC/MIC: ratio ≤2 bactericidal, ≥4 tolerance
# Protocol: (§1) MBC can be defined as the minimum concentration of a compound required to kill the bacteria over a fixed period under precise conditions. […] Colonies were counted, and colony forming unit (CFU) per milliliter was calculated.
# E. coli ParE enzyme = target: T1, E. coli ParE enzyme (Escherichia coli, UniProt P20083); test: E. coli ParE ATPase enzyme inhibition assay (ProFoldin kit, malachite green); assay type: biochemical; conditions: ATPase activity, mean ± SD (n = 3)
# T1 construct: purchased ProFoldin, Hudson, United States
# T1 sequence (P20083 whole entry): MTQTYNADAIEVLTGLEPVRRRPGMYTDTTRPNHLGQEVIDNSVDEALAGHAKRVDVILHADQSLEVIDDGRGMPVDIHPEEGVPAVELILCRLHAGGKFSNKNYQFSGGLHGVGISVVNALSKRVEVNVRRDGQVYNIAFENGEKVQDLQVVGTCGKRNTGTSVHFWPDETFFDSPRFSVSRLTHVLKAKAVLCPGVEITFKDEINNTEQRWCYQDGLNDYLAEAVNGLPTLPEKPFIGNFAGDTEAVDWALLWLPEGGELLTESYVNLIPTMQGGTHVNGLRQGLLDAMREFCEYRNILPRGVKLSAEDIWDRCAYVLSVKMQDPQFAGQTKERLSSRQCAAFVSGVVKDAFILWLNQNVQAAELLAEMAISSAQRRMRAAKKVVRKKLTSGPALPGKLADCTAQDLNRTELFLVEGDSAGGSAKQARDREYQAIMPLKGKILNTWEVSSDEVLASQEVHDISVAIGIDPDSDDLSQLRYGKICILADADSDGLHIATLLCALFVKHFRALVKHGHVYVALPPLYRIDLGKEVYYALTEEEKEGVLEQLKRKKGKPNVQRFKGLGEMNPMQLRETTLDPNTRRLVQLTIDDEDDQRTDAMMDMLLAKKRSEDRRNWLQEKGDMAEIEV
# T1 sequence (P0AFI2 whole entry, further chain): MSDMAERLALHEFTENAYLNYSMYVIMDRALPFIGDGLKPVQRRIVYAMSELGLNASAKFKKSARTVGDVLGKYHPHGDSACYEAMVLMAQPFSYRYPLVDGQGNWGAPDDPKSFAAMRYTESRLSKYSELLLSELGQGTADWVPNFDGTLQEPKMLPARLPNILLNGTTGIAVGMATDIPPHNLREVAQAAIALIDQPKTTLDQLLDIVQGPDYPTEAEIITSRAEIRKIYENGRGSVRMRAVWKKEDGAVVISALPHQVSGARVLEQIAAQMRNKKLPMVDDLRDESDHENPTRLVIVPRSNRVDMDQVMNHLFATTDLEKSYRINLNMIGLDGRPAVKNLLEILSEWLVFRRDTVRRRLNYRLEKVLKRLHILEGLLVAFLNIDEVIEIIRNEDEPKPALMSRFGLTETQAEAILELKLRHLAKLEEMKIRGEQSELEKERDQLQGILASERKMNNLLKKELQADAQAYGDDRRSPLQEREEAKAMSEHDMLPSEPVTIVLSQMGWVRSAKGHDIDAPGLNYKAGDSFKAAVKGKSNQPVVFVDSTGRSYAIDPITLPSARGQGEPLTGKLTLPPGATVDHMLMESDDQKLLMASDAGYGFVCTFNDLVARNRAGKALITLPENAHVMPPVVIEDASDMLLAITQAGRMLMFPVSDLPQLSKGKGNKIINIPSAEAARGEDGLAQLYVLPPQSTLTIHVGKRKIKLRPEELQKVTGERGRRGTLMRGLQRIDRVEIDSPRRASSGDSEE
# Protocol: The assay was performed as per the standard protocol provided by the ProFoldin. […] ParE hydrolyzes ATP as the source of molecular energy to perform decatenation reactions. Fluoroquinolones and aminocoumarins usually block ATPase activity to hinder the biological activities of topoisomerase II. Thus, the topoisomerase ATPase assay can be used for high-throughput screening of topoisomerase inhibitors. The ATPase activity of the E. coli ParE enzyme was based on the detection of inorganic phosphate produced by the hydrolysis of ATP in the presence of DNA. The phosphate is detected using a microplate reader at an absorbance wavelength of 650 nm. The selected compounds were tested for the inhibition of ATPase activity of ParE enzyme. […] The reaction mixture was incubated for 1 h at 37°C and then quenched with 45 μL of Dye. Incubate for 5 min, and the absorbance was measured at 650 nm. The IC50 values were determined from the absorbance readings using no enzyme and no compound controls. They were calculated using the non-linear regression curve fit method.
# MRSA (ATCC43300) [16] = test: Minimum bactericidal concentration (MBC); assay type: cell-based, methicillin-resistant Staphylococcus aureus
# Protocol: as §1
# MRSA (NCIM 5021) [17] = test: Minimum bactericidal concentration (MBC); assay type: cell-based, methicillin-resistant Staphylococcus aureus
# Protocol: as §1
# Vero cells [18] = system: Vero cells
# Vero cells [19] = test: In vitro cytotoxicity MTT assay; conditions: CC50 Vero cells / IC50
# [20] = Staphylococcus aureus, read-out: Minimum inhibitory concentration
Structure (SMILES),Minimum inhibitory concentration (MIC) K. p [1],Minimum inhibitory concentration (MIC) P. a [2],Minimum inhibitory concentration (MIC) B. s [3],Minimum inhibitory concentration (MIC) M. t [4],Minimum inhibitory concentration (MIC) S. a [5],Minimum inhibitory concentration (MIC) S. e [8],Minimum inhibitory concentration (MIC) E. c [13],Minimum inhibitory concentration (MIC) S. t [14],MBC [15],MBC/MIC [15],Minimum inhibitory concentration [7],Minimum inhibitory concentration (MRSA (NCIM 5021) [9]),IC50 against E. coli ParE enzyme (E. coli ParE enzyme),Minimum inhibitory concentration (MRSA (ATCC43300) [11]),MBC (MRSA (ATCC43300) [16]),MBC/MIC (MRSA (ATCC43300) [16]),MBC (MRSA (NCIM 5021) [17]),MBC/MIC (MRSA (NCIM 5021) [17]),CC50 (Vero cells [18]),SI (CC50/IC50) (Vero cells [19]),further results
O=C(O)c1cn(C2CC2)c2cc(N3CCNCC3)c(F)cc2c1=O [Ciprofloxacin],0.63,0.67,0.81,0.60,0.68,0.74,0.97,,,,,,,,,,,,,,"reduction in biofilm [6]: 86%; MIC ([7]; Escherichia coli, NCIM2065, read-out: Minimum inhibitory concentration): 0.62 ± 0.015 µg/mL; MIC (MRSA (NCIM 5021) [9]; [20]): 0.67 ± 0.02 µg/mL; PAE = T - C (E. coli [10]; 1 × mic): 1 h; Time for 1 log10 (E. coli [10]; 1 × mic): 3 h; PAE = T - C (E. coli [10]; 10 × mic): 2 h; Time for 1 log10 (E. coli [10]; 10 × mic): 4 h; MIC (MRSA (ATCC43300) [11]; [20]): 0.7 ± 0.03 µg/mL; FIC B (E. coli [12]; FIC of the drug in combination with compound 5): 0.1556; FIC B (E. coli [12]; FIC of the drug in combination with compound 21): 0.1589; Inference (E. coli [12]; drug combined with compound 5): Synergistic (synergistic when the ΣFICs is ≤ 0.5); ΣFIC A + FIC B (E. coli [12]; drug combined with compound 5): 0.3162; Inference (E. coli [12]; drug combined with compound 21): Synergistic (synergistic when the ΣFICs is ≤ 0.5); ΣFIC A + FIC B (E. coli [12]; drug combined with compound 21): 0.3614"
O=C(COc1ccccc1NC(=O)CCl)Nc1ccc(Cl)cc1 [Compound 2],2.95,2.59,0.72,4.52,0.69,0.92,2.45,2.56,2.00 ± 0.01 µg/mL,2,1.01 ± 0.19 µg/mL,2.41 ± 0.65 µg/mL,2.33 µg/mL,1.34 ± 0.49 µg/mL,2.71 ± 0.21 µg/mL,2,4.8 ± 0.21 µg/mL,2,,,
O=C(COc1ccccc1NC(=O)CCl)Nc1ccc(C(=O)O)cc1 [Compound 3],0.75,0.67,6.30,2.31,4.23,3.04,0.82,1.52,1.75 ± 0.09 µg/mL,1,1.81 ± 0.15 µg/mL,1.84 ± 0.13 µg/mL,0.95 ± 0.09 µg/mL,1.79 ± 0.21 µg/mL,1.79 ± 0.21 µg/mL,1,1.84 ± 0.13 µg/mL,1,178.8742 µg/mL,188.2886,
O=C(CCl)Nc1ccccc1OCC(=O)Nc1ccc([N+](=O)[O-])cc1[N+](=O)[O-] [Compound 7],1.25,0.67,6.56,1.02,5.78,8.62,1.52,,0.83 ± 0.1 µg/mL,1,0.83 ± 0.05 µg/mL,0.95 ± 0.06 µg/mL,0.95 ± 0.06 µg/mL,0.85 ± 0.09 µg/mL,0.85 ± 0.09 µg/mL,1,0.95 ± 0.06 µg/mL,1,224.7306 µg/mL,236.5585,
